According to article PMC9694544, “Conteltinib (CT-707) in patients with advanced ALK-positive non-small cell lung cancer: a multicenter, open-label, first-in-human phase 1 study” (BMC Medicine, 2022):
Where two headings read alike, the source gives them in different places.

Columns and labels:
ALK G1269S = ALK G1269S (Homo sapiens, UniProt Q9UM73, G1269S); test: ALK enzymatic IC50, G1269S; assay type: biochemical
Source text: Supplement 12916_2022_2646_MOESM1_ESM.docx, table 1 | column: ALK Enzymatic IC50 (nM)

clinical = details: human, in vivo; for half-life: read-out: T1/2 (converted); for Tmax: read-out: Tmax
Protocol: For single-dose PK parameters, plasma samples were taken at pre-dose and 0.5 h, 1 h, 2 h, 3 h, 4 h, 6 h, 8 h, 12 h, 24 h, 48 h, 72 h, 96 h, 120 h, 144 h, and 168 h post-dose in PK lead-in phase of dose-escalation phase, and plasma samples were also taken at pre-dose and 0.5 h, 1 h, 2 h, 3 h, 4 h, 6 h, 8 h, 12 h, and 24 h post-dose in cycle 1 day 1 of dose-expansion phase. During continuous dosing, serial plasma samples were collected at pre-dose in cycle 1 day 15, pre-dose in cycle 1 day 22, pre-dose and 0.5 h, 1 h, 2 h, 3 h, 4 h, 6 h, 8 h, 12 h, and 24 h post-dose in cycle 1 day 28 for all dose cohorts. The following PK parameters were assessed: area under the concentration-time curve from the time of dosing extrapolated to infinity, based on the last observed concentration (AUCINF_obs); area under the concentration-time curve from the time of dosing to the time of last observation (AUClast); maximum concentration (Cmax); time to maximum concentration (Tmax); elimination half-life (T1/2); and mean residence time from the time of dosing to the time of the last measurable concentration (MRTlast).

[1] = 100 mg, cycle 1 day 28 of dose-expansion phase, 100 mg (n=5), mean
[2] = 100 mg, single dose, cycle 1 day 1 of dose-expansion phase, 100 mg (n=5), mean
[3] = 450 mg, cycle 1 day 28 of dose-expansion phase, 450 mg (n=10), mean
[4] = 450 mg, single dose, cycle 1 day 1 of dose-expansion phase, 450 mg (n=10), mean
[5] = 600 mg, cycle 1 day 28 of dose-expansion phase, 600 mg (n=10), mean
[6] = 600 mg, single dose, cycle 1 day 1 of dose-expansion phase, 600 mg (n=10), mean
[7] = cycle 1 day 28 of dose-escalation phase, 50 mg (n=2), mean
[8] = cycle 1 day 28 of dose-escalation phase, 100 mg (n=3), mean
[9] = cycle 1 day 28 of dose-escalation phase, 200 mg (n=3), mean
[10] = cycle 1 day 28 of dose-escalation phase, 300 mg (n=3), mean
[11] = cycle 1 day 28 of dose-escalation phase, 450 mg (n=3), mean

## COc1cc(N2CCC(N3CCN(C)CC3)CC2)ccc1Nc1nc2c(c(Nc3ccccc3S(=O)(=O)NC(C)C)n1)CCN2 [Conteltinib]
ALK G1269S
  IC50: 8.4 nM
clinical; 100 mg, Cmax
  Cmax: 123 ng/mL
clinical; [1]
  AUC(0-t): 1710 ng·h/mL
  MRT last: 10.7 h
  half-life: 53.2 h
  Tmax: 2 h
clinical; 100 mg, cycle 1 day 28 of dose-expansion phase, 100 mg (n=5), mean, read-out: AUCINF_obs
  AUC(0-inf): 6460 ng·h/mL
clinical; [2]
  AUC(0-t): 737 ng·h/mL
  MRT last: 8.9 h
  half-life: 26.7 h
  Tmax: 2.7 h
clinical; 100 mg, single dose, cycle 1 day 1 of dose-expansion phase, 100 mg (n=5), mean, read-out: AUCINF_obs
  AUC(0-inf): 1310 ng·h/mL
clinical; 100 mg, single dose, cycle 1 day 1 of dose-expansion phase, 100 mg (n=5), mean, read-out: Cmax
  Cmax: 85.5 ng/mL
clinical; [3]
  AUC(0-t): 7040 ng·h/mL
  MRT last: 10.5 h
  half-life: 26.3 h
  Tmax: 3 h
clinical; 450 mg, cycle 1 day 28 of dose-expansion phase, 450 mg (n=10), mean, read-out: AUCINF_obs
  AUC(0-inf): 15700 ng·h/mL
clinical; 450 mg, cycle 1 day 28 of dose-expansion phase, 450 mg (n=10), mean, read-out: Cmax
  Cmax: 491 ng/mL
clinical; [4]
  AUC(0-t): 3060 ng·h/mL
  MRT last: 9.3 h
  Tmax: 2.3 h
clinical; 450 mg, single dose, cycle 1 day 1 of dose-expansion phase, 450 mg (n=10), mean, read-out: AUCINF_obs
  AUC(0-inf): 6340 ng·h/mL
clinical; 450 mg, single dose, cycle 1 day 1 of dose-expansion phase, 450 mg (n=10), mean, read-out: Cmax
  Cmax: 328 ng/mL
clinical; 600 mg, AUCINF_obs
  AUC(0-inf): 7150 ng·h/mL
clinical; [5]
  AUC(0-t): 11900 ng·h/mL
  half-life: 37.1 h
  Tmax: 3.3 h
clinical; 600 mg, cycle 1 day 28 of dose-expansion phase, 600 mg (n=10), mean, read-out: AUCINF_obs
  AUC(0-inf): 32500 ng·h/mL
clinical; 600 mg, cycle 1 day 28 of dose-expansion phase, 600 mg (n=10), mean, read-out: Cmax
  Cmax: 772 ng/mL
clinical; [6]
  AUC(0-t): 4610 ng·h/mL
  MRT last: 9.8 h
  half-life: 16.7 h
  Tmax: 4.6 h
clinical; 600 mg, single dose, cycle 1 day 1 of dose-expansion phase, 600 mg (n=10), mean, read-out: Cmax
  Cmax: 472 ng/mL
clinical; [7]
  AUC(0-t): 683 ng·h/mL
  half-life: 352 h
  Tmax: 1.5 h
clinical; cycle 1 day 28 of dose-escalation phase, 50 mg (n=2), mean, read-out: AUCINF_obs
  AUC(0-inf): 16700 ng·h/mL
clinical; cycle 1 day 28 of dose-escalation phase, 50 mg (n=2), mean, read-out: Cmax
  Cmax: 42.7 ng/mL
clinical; [8]
  AUC(0-t): 1480 ng·h/mL
  half-life: 61.1 h
  Tmax: 2.7 h
clinical; cycle 1 day 28 of dose-escalation phase, 100 mg (n=3), mean, read-out: AUCINF_obs
  AUC(0-inf): 6110 ng·h/mL
clinical; cycle 1 day 28 of dose-escalation phase, 100 mg (n=3), mean, read-out: Cmax
  Cmax: 106 ng/mL
clinical; [9]
  AUC(0-t): 3570 ng·h/mL
  MRT last: 11.2 h
  half-life: 42.2 h
  Tmax: 3 h
clinical; cycle 1 day 28 of dose-escalation phase, 200 mg (n=3), mean, read-out: AUCINF_obs
  AUC(0-inf): 12400 ng·h/mL
clinical; cycle 1 day 28 of dose-escalation phase, 200 mg (n=3), mean, read-out: Cmax
  Cmax: 259 ng/mL
clinical; [10]
  AUC(0-t): 4860 ng·h/mL
  half-life: 50.9 h
  Tmax: 3 h
clinical; cycle 1 day 28 of dose-escalation phase, 300 mg (n=3), mean, read-out: AUCINF_obs
  AUC(0-inf): 19000 ng·h/mL
clinical; cycle 1 day 28 of dose-escalation phase, 300 mg (n=3), mean, read-out: Cmax
  Cmax: 282 ng/mL
clinical; [11]
  AUC(0-t): 8050 ng·h/mL
  MRT last: 11.6 h
  half-life: 48.6 h
  Tmax: 4.3 h
clinical; cycle 1 day 28 of dose-escalation phase, 450 mg (n=3), mean, read-out: AUCINF_obs
  AUC(0-inf): 34400 ng·h/mL
clinical; cycle 1 day 28 of dose-escalation phase, 450 mg (n=3), mean, read-out: Cmax
  Cmax: 474 ng/mL
clinical; cycle 1 day 28 of dose-escalation phase, 600 mg (n=7), mean
  AUC(0-t): 14000 ng·h/mL
